Marks after values point to notes of the source that are not given here.
Test system: mAPP N2a cells
Assay: qRT-PCR mRNA expression in mAPP N2a cells treated with ligand 1
Type: cell-based, mouse
Description: The N2a cells grown for 6 days in a serum-free medium (1:1 mixture of DMEM and OptiMEM, plus penicillin and streptomycin (Invitrogen, Carlsbad, CA, USA) until the cells developed neuronal processes. As shown in (FIG. 10), these cells were used for 4 groups—one control group and 3 treatment groups. 1) untreated N2a cells (the control group), 2) N2a cells treated with ligand 1 (N2a+ligand 1), 3) N2a cells transfected mAPP with the (lipofectamine) (20 μM final concentration for 6 hrs (mAPP), 4) N2a cells transfected with mAPP cDNA for 6 hrs, treated with ligand 1 (mAPP+ligand 1 treatment group), N2a cells treated with ligand 1 for 24 hrs and then treated with the mAPP cDNA for 6 hrs (ligand 1+mAPP treatment group). As shown in (FIG. 10), the inventors performed 4 independent cell cultures and treatments for all experiments (n=4).
mRNA levels of mitochondrial dynamics and mitochondrial biogenesis and synaptic genes. Using the reagent TriZol (Invitrogen), the inventors isolated total RNA from 4 independent treatments of N2a cells (n=4) from control (untreated N2a cells) and experimental treatments (N2a cells treated with Ligand 1; N2a cells transfected with mAPP; N2a cells transfected with mAPP and then treated with Ligand 1. Using primer express Software (Applied Biosystems), the inventors designed the oligonucleotide primers for the housekeeping genes β-actin, GDPH; APP-related genes (APP, BACE1 and PSN1); mitochondrial structural genes; fission (Drp1 and Fis1); fusion genes (MFN1, MFN2, Opa1) (54), mitochondrial biogenesis genes (PGC1α, Nrf1, Nrf2, and Tfam) (Manczak et al., 2019), and synaptic proteins (SYN, PSD95 and MAP2). The primer sequences and amplicon sizes are listed in (Table 1). With SYBR-Green chemistry-based quantitative real-time RT-PCR, the inventors measured mRNA expression of the genes mentioned above as described by Manczak et al. 2019(54). Briefly, 2 μg of DNAse-treated total RNA was used as starting material, to which the inventors added 1 μl of oligo (dT), 1 μl of 10 mM dNTPs, 4 μl of 5× first strand buffer, 2 μl of 0.1 M DTT, and 1 μl RNAse outout. The reagents RNA, dT), and dNTPs were mixed first, then heated at 65° C. for 5 min, and finally chilled on ice until the remaining components were added. The samples were incubated at 42° C. for 2 min, and then 1 μl of Superscript II (40 U/μl) was added. The samples were then incubated at 42° C. for 50 min, at which time the reaction was inactivated by heating at 70° C. for 15 min.
Quantitative real-time PCR amplification reactions were performed in N2a cells in an ABI Prism 7900 sequence detection system (Applied Biosystems, Foster City, CA) in a 25-μl volume of total reaction mixture. The reaction mixture consisted of 1×PCR buffer containing SYBR-Green; 3 mM MgCl2; 100 nm of each primer; 200 nm of dATP, dGTP, and dCTP each; 400 nm of dUTP; 0.01 U/μl of AmpErase UNG; and 0.05 U/μl of AmpliTaq Gold. A 20 ng cDNA template was added to each reaction mixture.
The CT-values of β-actin was tested to determine the unregulated endogenous reference gene in N2a cells that were treated with Aβ and protective molecules, and in untreated N2a cells. In the latter case, the CT-value was similar in untreated and N2a cells treated with MTAs and Aβ. The CT-value is an important quantitative parameter in real-time PCR analysis as described in Gutala and Reddy (2004) (55). All RT-PCR reactions were carried out in triplicate, with no template control. The PCR conditions were: 50° C. for 2 min and 95° C. for 10 min, followed by 40 cycles of 95° C. for 15 sec and 60° C. for 1 min. The fluorescent spectra were recorded during the elongation phase of each PCR cycle. To distinguish specific amplicons from non-specific amplifications, a dissociation curve was generated. […]

[1] = N2a + mAPP + ligand1 relative to mAPP N2a cells
[2] = N2a + mAPP + ligand1 relative to mAPP N2a cells, listed as ligand 1
[3] = N2a + mAPP + ligand1 relative to mAPP N2a cells, listed as ligand1
[4] = N2a + mAPP + ligand1 relative to mAPP N2a cells, negative = decrease
[5] = N2a + mAPP + ligand1 relative to untreated N2a cells
[6] = ligand 1 treated mAPP cells relative to mAPP cells, size of the decrease, P<0.05

[(6As,8S,10aS,12aS)-10a, 12a-dimethyl-2-oxo-3,4,4a,4b,5,6,6a,7,8,9,10,10b,11,12-tetradecahydro-1H-naphtho[2,1-f]quinolin-8-yl] 4-[4-[bis(2-chloroethyl)amino]phenyl]butanoate [Ligand 1]
mRNA fold change Mfn1 [1]: 1.3 fold
mRNA fold change OPA1 [1]: 1.2 fold
mRNA fold change Mfn2 [2]: 1.5 fold
mRNA fold change Nrf1 [2]: 2.1 fold
mRNA fold change Nrf2 [2]: 2.1 fold
mRNA fold change PGC1a [2]: 2.0 fold
mRNA fold change PSD95 [2]: 1.3 fold
mRNA fold change Synaptophysin [2]: 1.9 fold
mRNA fold change TFAM [2]: 1.8 fold
mRNA fold change Mfn2 [3]: 1.5* fold
mRNA fold change Nrf1 [3]: 2.1** fold
mRNA fold change Nrf2 [3]: 2.1** fold
mRNA fold change PGC1a [3]: 2.0** fold
mRNA fold change PSD95 [3]: 1.8* fold
mRNA fold change Synaptophysin [3]: 1.9* fold
mRNA fold change TFAM [3]: 1.8* fold
mRNA fold change APP [4]: −1.5* fold
mRNA fold change BACE1 [4]: −1.4* fold
mRNA fold change Drp1 [4]: −2.3** fold
mRNA fold change Fis1 [4]: −1.5* fold
mRNA fold change Presenilin1 [4]: −1.5* fold
mRNA fold change APP [5]: 1.3 fold
mRNA fold change BACE1 [5]: 1.1 fold
mRNA fold change Drp1 [5]: 1.1 fold
mRNA fold change Fis1 [5]: 1.0 fold
mRNA fold change Mfn1 [5]: −1.2 fold
mRNA fold change Mfn2 [5]: 1.1 fold
mRNA fold change Nrf1 [5]: 1.2 fold
mRNA fold change Nrf2 [5]: 1.4 fold
mRNA fold change OPA1 [5]: 1.1 fold
mRNA fold change PGC1a [5]: 1.2 fold
mRNA fold change PSD95 [5]: 1.3 fold
mRNA fold change Presenilin1 [5]: −1.2 fold
mRNA fold change Synaptophysin [5]: 1.3 fold
mRNA fold change TFAM [5]: 1.5 fold
APP mRNA, fold decreased [6]: 1.5 fold
BACE1 mRNA, fold decreased [6]: 1.4
PSN1 mRNA, fold decreased [6]: 1.5
Drp1 mRNA, fold reduced (mAPP+ligand 1 treated cells relative to mAPP cells, size of the decrease, P<0.005): 2.3 fold
Fis1 mRNA, fold reduced (mAPP+ligand 1 treated cells relative to mAPP cells, size of the decrease, P<0.05): 1.5 fold

From US12042492B2 (priority 2020, dated 2024)
